Paper PMC9230136 (Pharmaceutics, 2022)
“Also recorded” adds a separate entry of the source. Like-named read-outs stand apart in the source and are kept apart here.

Key:
HeLa cells [1] = experiment: Apoptosis by annexin-V-FITC/PI flow cytometry; type: cell-based, human
Method: Surface exposure of phosphatidylserine on apoptotic cells was measured by flow cytometry with a Beckman Coulter Cytomics FC500 (Beckman Coulter Italia, Milano, Italy) by adding annexin-V conjugated to fluorescein isothiocyanate (FITC) to cells according to the manufacturer’s instructions (Annexin-V Fluos, Roche Diagnostic, Monza, Italy). Simultaneously, the cells were stained with PI. Excitation was set at 488 nm, and the emission filters were at 525 and 585 nm, respectively, for FITC and PI.

HeLa cells [2] = experiment: Mitochondrial membrane potential (JC-1); type: cell-based, human; settings: Figure 8A representative plot; concentration not given
Method: The mitochondrial potential was evaluated in HeLa cells by flow cytometry using the cell membrane permeable cationic dye 5,5′,6,6′-tetrachloro-1,1′,3,3′-tetraethyl-imidacarbocyanine iodide (JC-1) (Molecular Probes) as described previously. The production of ROS was measured in HeLa cells by flow cytometry using 2′,7′-dichlorodihydrofluorescein diacetate (H2DCFDA) (Molecular Probes) as described previously.

HeLa cells [3] = experiment: Cell cycle analysis (PI, flow cytometry); type: cell-based, human; settings: 50 nM, 24 h
Method: HeLa cells were seeded at 100,000 cells per well on 6-well tissue culture plates. After 24 h, cells were treated with different test compound concentrations or DMSO for another 24 h. Cells were then fixed and stained with propidium iodide (PI). The fluorescence intensity of 10,000 single-cell events was measured with a Beckman Coulter Cytomics FC500 instrument (Beckman Coulter Italia, Milano, Italy) and the data were analyzed with MultiCycle for Windows software from Phoenix Flow Systems (San Diego, CA, USA).

[4] = tested on: HeLa cells in zebrafish Tg(fli1: EGFP) embryos; experiment: Zebrafish xenograft model with HeLa cells; type: in vivo, Danio rerio; settings: 145 or 290 nM, 24 h, 34 °C; p 0.04 and 0.01
Method: For the transplantation, zebrafish Tg(fli1: EGFP) embryos expressing enhanced green fluorescent protein (EGFP) specifically in vascular endothelial cells, were kept at 28 °C and manually dechorionated. Before microinjections into zebrafish embryos, HeLa cancer cells were stained with VybrantTM DiI Cell-Labeling Solution (Invitrogen, ThermoFisher, Carlsbad, CA, USA) according to the manufacturer’s protocol, in order to visualize and track them inside the larvae. Stained cells (1.0 × 10^6 cells) were suspended in 20 μL of PBS 1X obtaining a final concentration of 50 cells/nL; next, the cellular suspension was loaded into borosilicate glass capillary needles (OD/ID: 1.00/0.75 mm, World Precision Instruments, Sarasota, FL, USA). […]
Initially (time 0 h pre-treatment) and after one day post-treatment, the tumors were photographed with a Zeiss AxioObserver microscope for live-cell imaging. HeLa cell fluorescence was recorded to investigate reduction, death and migration of tumor cells. Using Fiji ImageJ software, the reduction in cancer cell fluorescence, related to the effectiveness of the anticancer drug treatments, was calculated and plotted. The fluorescence of at least 20 identically treated embryos was compared to vehicle control set to 100%.

Bovine brain tubulin [5] = experiment: Inhibition of [3H]colchicine binding to tubulin; settings: tubulin 0.5 µM, [3H]colchicine 5 µM, compound 5 µM
Method: (§1) Bovine brain tubulin was purified as described previously. To evaluate the effects of the compounds on tubulin assembly in vitro [35], varying concentrations were preincubated with 10 μM tubulin in 0.8 M monosodium glutamate (pH 6.6) at 30 °C and the reaction mixtures then cooled to 0 °C. After addition of GTP, the mixtures were transferred to 0 °C cuvettes in Beckman Coulter (Brea, CA, USA) DU-7400/DU-7500 recording spectrophotometers equipped with electronic temperature controllers and warmed to 30 °C, and the assembly of tubulin was observed turbidimetrically. […] Inhibition of colchicine binding to tubulin was measured as described before, except that the reaction mixtures contained 0.5 μM tubulin and 5 μM each of [^3H]colchicine and test compound. Only one DEAE-cellulose filter was used per sample, and filtration was by gravity.

A549 = experiment: Antiproliferative assay (resazurin, 72 h); type: cell-based, human; settings: Table 2, mean ± SE
In short: (§2)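 Seed cells; after 24 h add compounds (10 mM DMSO stocks, diluted 5-fold serially from 10 μM). Incubate 72 h, then add resazurin for 3–4 h and measure fluorescence (535/600 nm). HT-29 was grown in RPMI-1640 and the others in DMEM, with 10% FBS.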

HeLa = experiment: Antiproliferative assay (resazurin, 72 h); type: cell-based, human; settings: Table 2, mean ± SE
In short: as §2

HT-29 = experiment: Antiproliferative assay (resazurin, 72 h); type: cell-based, human; settings: Table 2; mean ± SE; 72 h
In short: as §2

MDA-MB-231 = experiment: Antiproliferative assay (resazurin, 72 h); type: cell-based, human; settings: Table 2; mean ± SE; 72 h
In short: as §2

Bovine brain tubulin [6] = experiment: Inhibition of tubulin polymerization; type: biochemical
Method: as §1

In the case of Cc1cc(Nc2ccc(F)cc2)n2nc(NCCCc3ccccc3)nc2n1 [Compound 8q], the “concentration from which apoptosis was induced” value (HeLa cells [1]) is reported as 50 nM, the “Monomers (%) (monomeric JC-1)” value (HeLa cells [2]) is reported as 64.4% and the “cells arrested in G2/M” value (HeLa cells [3]) is reported as 80%. For the same compound, the “HeLa tumor cells / fluorescence in zebrafish xenograft” value [4] was “significantly inhibited HeLa cell growth in zebrafish embryos; also recorded: number of circulating tumor cells was significantly reduced; also recorded: fluorescence intensity decreased in a dose-dependent manner; also recorded: reduced HeLa cell growth in xenografts implanted in zebrafish embryos”, the “Colchicine Binding % Inhibition ± SD” value (Bovine brain tubulin [5]) was 88 ± 0.8% and the IC50 (A549) was 130 ± 90 nM. For the same compound, the IC50 (HeLa) was 29 nM, the IC50 (HT-29) was 49 ± 10 nM and the IC50 (MDA-MB-231) was 62 ± 30 nM. For the same compound, the “fold more potent than CA-4, tubulin polymerization” value (Bovine brain tubulin [6]) was “about 2 fold”, the IC50 (Bovine brain tubulin [6]; read-out: IC50 tubulin polymerization) was 520 nM and the IC50 (Bovine brain tubulin [6]; tubulin at 10 μM, read-out: Tubulin Assembly IC50 ± SD) was 390 ± 20 nM.
